Results from patent US4391821A, “7-Substituted benzopyranes and process for the preparation thereof” (Chinoin Gyogyszer es Vegyeszeti Termekek Gyara R.T., priority 1980, dated 1983).

Assays:
[1] = test system: blood pressure lowering and heart frequency increasing effects induced by isoproterenol; assay: Isoproterenol-induced blood pressure lowering and heart frequency increase in cats; type: in vivo; conditions: LD50/10 i.v., 2 mg/kg i.v. isoproterenol
rabbit ilium = assay: Spasmolytic effect on rabbit ilium
rat intestine = assay: Spasms induced in rat intestine by acetylcholine or barium chloride
[2] = test system: blood pressure and heart frequency; type: in vivo, cats
[3] = Acute toxicity in mice i.v.; conditions: mouse, in vivo, iv
blood pressure = assay: Blood pressure, heart frequency and breathing in rabbits; type: in vivo; conditions: i.v. or enterally
Excerpt: (§1) Propanolamines of formula (Ib) [drawing 4] constitute another special subgroup of compounds of formula (I). In formula (Ib) R1 and R2 are as defined above. These compounds have also very advantageous pharmaceutical effects, which, however, differ from the effects of the butanolamines of formula (Ia).

rat Langendorff-heart = assay: Coronary flow in rat Langendorff-heart; conditions: 10 μg/0,1 ml dose
Excerpt: as §1

[4] = test system: arrhythmia induced by 30 μg/kg i.v. aconitin; assay: Aconitin-induced arrhythmia in rats; type: in vivo; conditions: LD50/10 i.v.
Excerpt: (§2) In formula (Ia) R1 and R2 are as defined above, preferably R1 is branched alkyl or cycloalkyl, and R2 is hydrogen.

trachea preparation = assay: Antiisoproterenol effect in trachea preparation
Excerpt: (§3) The antiisoproterenol effect of the compound is moderated.

[5] = test system: guinea pig isolated left auricle; assay: Antiisoproterenol effect in guinea pig isolated left auricle
Excerpt: as §3

[6] = test system: ventricular fibrillation threshold; assay: Ventricular fibrillation threshold in open-chested anesthetized cats; type: in vivo
Excerpt: as §2

[7] = test system: guinea pig isolated left auricle; assay: Effective refractory period in guinea pig isolated left auricle (electrophysiology); conditions: 5×10^-5 M
Excerpt: as §3

β-receptor = assay: Antiisoproterenol effect, overall and concentration curves
Excerpt: as §3

[8] = test system: ventricular tadhycardia provoked by Strophantin; assay: Strophantin-provoked ventricular tachycardia in anesthetized cats; type: in vivo
Excerpt: as §2

[9] = test system: increase of the T-wave in the electrocardiogram induced by ornithine-vasopressin; assay: Ornithine-vasopressin-induced T-wave increase in ECG of rabbits anesthetized with urethane (antianginic); type: in vivo; conditions: LD50/40
Excerpt: From the pharmaceutical point of view the strong antianginic effect of our compounds of formula (Ia) is very important.

## CC1CCc2ccc(OCC(O)CNC3CCCCC3)cc2O1 (centres unmarked) [1-(2-methyl-3,4-dihydro-2H-1-benzopyrane-7-yloxy)-3-cyclohexylamino-2-propanol]
[1]
  inhibition of blood pressure lowering and heart frequency increasing effects induced by isoproterenol: inhibits strongly

## Cc1cc(=O)c2ccc(OCC(O)CNC(C)(C)C)cc2o1 (centres unmarked) [1-(2-methyl-4H-1-benzopyrane-4-one-7-yloxy)-3-(1,1-dimethylethylamino)-2-propanol]
Rabbit ilium
  spasmolytic effect: spasmolytic agent with parasympatholytic and direct striped muscle effects
Rat intestine; acetylcholine
  effect against spasms induced by acetylcholine: effective
Rat intestine; barium chloride
  effect against spasms induced by barium chloride: effective
[2]; LD50/20 i.v., anesthetized cats
  reduction of blood pressure: 50.2%
[2]; in vivo, iv
  effect on heart frequency: without significantly affecting their heart frequency

## CC(C)NCC(O)COc1ccc2c(c1)OCCC2 (centres unmarked) [1-(3,4-dihydro-2H-1-benzopyrane-7-yloxy)-3-(1-methylethylamino)-2-propanol]
[2]; LD50/320 i.v., anesthetized cats
  blood pressure lowering: 33,5%
[3]
  LD50: 66 mg/kg

## CC(C)NCC(O)COc1ccc2c(c1)OCC(c1ccccc1)C2 (centres unmarked) [1-(3-phenyl-3,4-dihydro-2H-1-benzopyrane-7-yloxy)-3-(1-methylethylamino)-2-propanol]
Blood pressure
  blood pressure lowering: significant and long-lasting blood pressure lowering
  effect on heart frequency, volume of breathing and frequency of breathing: without affecting the heart frequency, the volume of breathing and the frequency of breathing
Rat Langendorff-heart
  coronary flow: increases the coronary flow

## OC(CCNC1CCCCC1)COc1ccc2c(c1)OC(c1ccccc1)CC2 (centres unmarked) [4-cyclohexylamino-1-(2-phenyl-3,4-dihydro-2H-1-benzopyrane-7-yloxy)-2-butanol]
[4]
  effect on arrhythmia induced by aconitin: revokes arrhythmia
Trachea preparation
  concentration with antiisoproterenol effect in trachea preparation: 10^-4 M
[5]
  concentration with antiisoproterenol effect in left auricle: 50 µM
[6]
  ventricular fibrillation threshold: remarkably increases
[6]; versus Propranolol
  ventricular fibrillation threshold, effect compared with Propranolol: stronger effect that that of Propranolol
[7]; versus Practolol
  effect on effective refractory period compared with Practolol: stronger by nearly an order of magnitude than that of Practolol
[7]; versus Propranolol
  effect on effective refractory period compared with Propranolol: almost as strong as the effect of Propranolol
β-receptor; overall
  antiisoproterenol effect: moderated
β-receptor; runs of the concentration curves
  character of the antiisoproterenol effect: not of a competitive character
[8]
  time for which ventricular tachycardia provoked by Strophantin is suspended: 19 min

## OC(CCNC1CCCCC1)COc1ccc2c(c1)OCC(c1ccccc1)C2 (centres unmarked) [4-cyclohexylamino-1-(3-phenyl-3,4-dihydro-2H-1-benzopyrane-7-yloxy)-2-butanol]
[9]; rabbits anesthetized with urethane, 0.5 E/kg ornithine-vasopressin
  elimination of the increase of the T-wave in the electrocardiogram: eliminates practically completely
[9]; versus Propranolol
  effect on T-wave increase compared with Propranolol: significantly surpasses the effect of Propranolol
